From ChEMBL document CHEMBL5058564, “EUbOPEN Chemogenomics Library 2 (Incucyte)” (2022)
“And” between values parts separate entries of the source, which are not always exact repeats. Identical values can stand only once.

How the values were obtained:
Type in all cases: toxicity, cell-based
HEK-293T = test: Incucyte cell viability with HEK293T; conditions: human, 10 µM, compound concentration 10 uM
Fibroblast = test: Incucyte cell viability with human fibroblast; conditions: 10 µM, compound concentration 10 uM
U2OS = test: Incucyte cell viability with U2OS; conditions: human, 10 µM, compound concentration 10 uM
[1] = 0 h, replicate number 2, timepoint 0 hours
[2] = 6 h, replicate number 1, timepoint 6 hours
[3] = 6 h, replicate number 2, timepoint 6 hours
[4] = 12 h, replicate number 1, timepoint 12 hours
[5] = 12 h, replicate number 2, timepoint 12 hours
[6] = 18 h, replicate number 1, timepoint 18 hours
[7] = 24 h, replicate number 1, timepoint 24 hours
[8] = 18 h, replicate number 2, timepoint 18 hours
[9] = 24 h, replicate number 2, timepoint 24 hours
[10] = 0 h, replicate number 1, timepoint 0 hours
Also: unitless GR value; below 1 slowed growth and below 0 cell loss.

SMILES	Growth Rate (HEK-293T; [1])	Growth Rate (HEK-293T; [2])	Growth Rate (HEK-293T; [4])	Growth Rate (HEK-293T; [5])	Growth Rate (HEK-293T; [6])	Growth Rate (HEK-293T; [7])	Growth Rate (Fibroblast; [1])	Growth Rate (U2OS; [1])	Growth Rate (U2OS; [5])	Growth Rate (U2OS; [8])	Growth Rate (Fibroblast; [2])	Growth Rate (Fibroblast; [4])	Growth Rate (Fibroblast; [7])	Growth Rate (U2OS; [3])	Growth Rate (U2OS; [9])	Growth Rate (Fibroblast; [6])	Growth Rate (HEK-293T; [8])	Growth Rate (HEK-293T; [9])	Growth Rate (Fibroblast; [9])	Growth Rate (U2OS; [10])	also measured
CCCCC(=O)N(Cc1ccc(-c2ccccc2-c2nnn[nH]2)cc1)[C@H](C(=O)O)C(C)C	0.85	0.44	0.75	0.94	0.6	0.8	0.94	-0.99	0.99	0.92											Growth Rate (HEK-293T; [3]): 0.43; Growth Rate (Fibroblast; [3]): 0.44; Growth Rate (Fibroblast; [5]): 0.96; Growth Rate (U2OS; [2]): 0.76
CN1CCc2cc(Cl)c(O)cc2[C@@H](c2ccccc2)C1.Cl	0.66			0.71				-1		0.86	-0.06	1	0.88	0.49	0.95						Growth Rate (HEK-293T; [3]): 0.46
c1ccc(NCc2ccc(CNc3ccccn3)cc2)nc1	0.94	0.66	0.44	0.83	0.98			-1		0.98		0.23	0.76			0.88					Growth Rate (HEK-293T; [3]): 0.7; Growth Rate (Fibroblast; [3]): 1; Growth Rate (Fibroblast; [5]): 0.64; Growth Rate (U2OS; [6]): 0.76; Growth Rate (U2OS; [7]): 0.93
O=C(CCCc1ccccc1)Nc1nc2ccccc2c(=O)s1	0.98	0.03	0.13		0.34	0.34	0.6		0.83	0.76	-0.7	-0.62	-0.59	0.67	0.84	-0.7	0.95	0.84	-0.34	-0.37	Growth Rate (Fibroblast; [3]): -0.65; Growth Rate (Fibroblast; [5]): -0.39; Growth Rate (Fibroblast; [8]): -0.32
CCOC(=O)Nc1cc(-c2ccc(C)c(NS(C)(=O)=O)c2)nn2c(C)nnc12	0.66		0.95		0.79	0.46	0.22		0.95	0.95	-0.16			0.59	0.84		0.98	0.76	0.95	0.25	Growth Rate (HEK-293T; [10]): 0.65; Growth Rate (U2OS; [2]): 0.15; Growth Rate (U2OS; [4]): 0.56; Growth Rate (U2OS; [6]): 0.82; Growth Rate (U2OS; [7]): 0.83
C[C@H](NC(=O)CNC(=O)c1cccc(Cl)c1)c1ccccc1	0.84			0.96			0.36		0.94	0.91				0.8	0.98					-0.7	Growth Rate (Fibroblast; [10]): 0.45
CC(C)c1c(NC(=O)Nc2ccc(Cl)cc2)c(=O)n(-c2ccccc2)n1C	0.92		0.65	0.96	0.55	0.53	0.39	-0.97			0.31	0.35	0.69			0.76		0.96	0.44	-0.9	Growth Rate (HEK-293T; [3]): 0.74; Growth Rate (Fibroblast; [10]): 0.29; Growth Rate (Fibroblast; [5]): 0.54; Growth Rate (Fibroblast; [8]): 0.54
CCOc1c2c(c(OCC)c3ncccc13)CN(c1ccc(CS(=O)(=O)NC(=O)Cc3ccccc3OC)cc1C)C2=O	0.82	0.48	0.83		0.9	0.87	0.58			1	0.32	0.49	-0.06	0.75		0.23	1		-0.4	-0.69	Growth Rate (Fibroblast; [10]): 0.27; Growth Rate (Fibroblast; [3]): -0.34; Growth Rate (Fibroblast; [5]): -0.12; Growth Rate (Fibroblast; [8]): -0.18
O=C(Nc1cc(C(F)(F)F)ccc1N1CCCCC1)c1ccncc1	0.52			0.9			0.62	0.81	0.76	0.99	-0.18	0.52	0.59	0.75		0.65		0.95	0.83	-0.22	Growth Rate (HEK-293T; [10]): 0.08; Growth Rate (U2OS; [2]): 0.54; Growth Rate (U2OS; [4]): 0.85; Growth Rate (U2OS; [6]): 0.87; Growth Rate (U2OS; [7]): 0.81
C=CCNc1ncnc2ccc(Br)cc12	0.64	0.57	0.84		0.58	0.91	0.05	0.44	0.77	0.85		0.47	0.45		0.9	0.3	0.9	0.96	0.75		Growth Rate (HEK-293T; [10]): 0.98; Growth Rate (Fibroblast; [8]): 0.98; Growth Rate (U2OS; [4]): 0.96; Growth Rate (U2OS; [6]): 0.82; Growth Rate (U2OS; [7]): 0.97
COc1cc(Nc2nc(C)cc(-c3cnn4nc(OC)ccc34)n2)cc(C(F)(F)F)c1				0.84				0.84	1 and 0.46	0.62 and 0.36				0.89 and 0.77	0.76 and 0.27		0.94	0.85	0.58 and 0.24	0.11	Growth Rate (HEK-293T; [10]): 0.76; Growth Rate (HEK-293T; [3]): 0.89; Growth Rate (Fibroblast; [8]): 0.67 and 0.25; Growth Rate (U2OS; [2]): 0.24; Growth Rate (U2OS; [4]): 0.61 and 0.48; Growth Rate (U2OS; [6]): 0.85 and 0.45; Growth Rate (U2OS; [7]): 0.62 and 0.35
COC[C@@H](CC(C)C)NC1=N/C(=C\c2ccc3ncsc3c2)C(=O)N1C	-0.15	0.84	0.24	0.41	0.39	0.48	-0.23	0.78	0.53	0.38					0.35		0.38	0.42			Growth Rate (HEK-293T; [10]): -0.43; Growth Rate (Fibroblast; [10]): 0.25; Growth Rate (U2OS; [4]): 0.43; Growth Rate (U2OS; [6]): 0.22; Growth Rate (U2OS; [7]): 0.25
CN(c1ncccc1CNc1ccnc(-c2nc3c(F)c(Cl)ccc3[nH]2)n1)S(C)(=O)=O	0.48	0.84	0.97	0.72	0.93		0.75	-0.69	0.66	0.87	-0.47	0.38	0.36	0.61	0.72	0.27	0.99	0.81	0.92	-0.62	Growth Rate (HEK-293T; [10]): -0.02; Growth Rate (U2OS; [2]): 0.1; Growth Rate (U2OS; [4]): 0.15; Growth Rate (U2OS; [6]): 0.62; Growth Rate (U2OS; [7]): 0.78
COc1cc2nc(N3CCN(C(=O)COc4c(OC)cccc4C(C)C)CC3)nc(N)c2cc1OC.Cl.Cl	0.59	-0.28	-0.06	0.66	0.21	0.39	0.71	-1			-0.72	-0.84	-0.65			-0.75	0.61	0.84	-0.39		Growth Rate (HEK-293T; [3]): 0.9; Growth Rate (Fibroblast; [3]): -0.55; Growth Rate (Fibroblast; [5]): -0.41; Growth Rate (Fibroblast; [8]): -0.48; Growth Rate (U2OS; [4]): 0.56
Cc1onc(-c2ccccc2Cl)c1C(=O)N(C)c1ccc(Cl)cc1	0.62						0.86		0.67	0.85				0.56	0.96						Growth Rate (Fibroblast; [10]): -0.53
